Data from the supplement of paper PMC8617591.

Assays:
[1] = tested on: Mycobacterium tuberculosis Erdman (autoluminescent); experiment: FIC90 (Loewe) at 90% inhibition (log2); higher = more antagonistic
Description: (§1)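 DiaMOND equipotent two-drug combination dose responses against autoluminescent M. tuberculosis Erdman in 8 in vitro models. Read-out is OD600, or luminescence for the intracellular and dormancy models, normalised to untreated wells. Hill-fit Einf, AUC25 and GRinf are potency metrics; FIC50 and FIC90 are Loewe-additivity fractional inhibitory concentrations, given as log2 (negative = synergy). Replicates are averaged.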

[2] = tested on: Mycobacterium tuberculosis Erdman (autoluminescent); experiment: FIC50 (Loewe) at 50% inhibition (log2); higher = more antagonistic
Description: as §1

[3] = tested on: Mycobacterium tuberculosis Erdman (autoluminescent); experiment: Einf, fitted maximum growth inhibition of combination (fraction); higher = stronger maximal inhibition
Description: as §1

[4] = tested on: Mycobacterium tuberculosis Erdman (autoluminescent); experiment: AUC25, normalised area under dose response up to IC25 (fraction (0-1)); higher = more potent at low dose
Description: as §1

[5] = tested on: Mycobacterium tuberculosis Erdman (autoluminescent); experiment: GRinf, maximum normalised growth rate inhibition (unitless (-1 to 1)); higher = less effect (negative = killing)
Description: as §1

CC[C@@H](CO)NCCN[C@@H](CC)CO [ethambutol] + NNC(=O)c1ccncc1 [isoniazid]
Details | AUC25, [4] | Einf, [3] | FIC50, [2] | FIC90, [1] | GRinf, [5]
in vitro model: acidic pH 5.7, time point: constant (~7 days, model-specific) | 0.134 | 0.693 | 1.2 | – | -0.17
in vitro model: acidic pH 5.7, time point: terminal (~4-5 doublings, model-specific) | 0.0706 | 0.919 | 0.67 | 0.229 | 0.00119
in vitro model: intracellular J774, time point: constant = terminal | – | 1 | – | -0.439 | -0.332

Details | AUC25, [4] | Einf, [3] | FIC50, [2] | FIC90, [1] | GRinf, [5]
in vitro model: butyrate, time point: constant (~7 days, model-specific) | 0.075 | 0.933 | 0.509 | – | -0.0966
in vitro model: butyrate, time point: terminal (~4-5 doublings, model-specific) | 0.0681 | 0.973 | 0.525 | 0.423 | -0.109
in vitro model: cholesterol 0.05 mM, time point: constant (~7 days, model-specific) | 0.0891 | 0.73 | 0.389 | – | -0.157
in vitro model: cholesterol 0.05 mM, time point: terminal (~4-5 doublings, model-specific) | 0.0491 | 0.862 | 0.82 | – | -0.106
in vitro model: cholesterol-high 0.2 mM, time point: constant (~7 days, model-specific) | 0.0277 | 0.905 | 0.561 | – | -0.31
in vitro model: cholesterol-high 0.2 mM, time point: terminal (~4-5 doublings, model-specific) | 0.0319 | 1 | 0.775 | 0.501 | -0.731
in vitro model: dormancy (butyrate + nitrate, low O2), time point: constant (~7 days, model-specific) | 0.104 | 0.818 | -0.0762 | – | 0.454
in vitro model: dormancy (butyrate + nitrate, low O2), time point: terminal (~4-5 doublings, model-specific) | 0.0973 | 0.964 | -0.121 | -0.0702 | -0.0063
in vitro model: standard 7H9 glycerol, time point: constant = terminal | 0.0635 | 0.92 | 0.483 | 0.426 | 0.0262
in vitro model: valerate, time point: constant (~7 days, model-specific) | 0.111 | 0.897 | 0.108 | – | 0.0449
in vitro model: valerate, time point: terminal (~4-5 doublings, model-specific) | 0.0612 | 0.935 | 0.332 | 0.345 | 0.0607

CC[C@@H](CO)NCCN[C@@H](CC)CO [ethambutol] + O=[N+]([O-])c1cn2c(n1)OC[C@@H](OCc1ccc(OC(F)(F)F)cc1)C2 [pretomanid]
Details | AUC25, [4] | Einf, [3] | FIC50, [2] | FIC90, [1] | GRinf, [5]
in vitro model: acidic pH 5.7, time point: constant (~7 days, model-specific) | 0.113 | 0.847 | 0.0798 | -1.11 | -0.488
in vitro model: acidic pH 5.7, time point: terminal (~4-5 doublings, model-specific) | 0.0826 | 0.978 | 0.568 | 0.214 | -0.437
in vitro model: intracellular J774, time point: constant = terminal | – | 0.977 | – | -1.45 | -0.403

Details | AUC25, [4] | Einf, [3] | FIC50, [2] | FIC90, [1] | GRinf, [5]
in vitro model: butyrate, time point: constant (~7 days, model-specific) | 0.0746 | 0.924 | 0.254 | – | 0.00273
in vitro model: butyrate, time point: terminal (~4-5 doublings, model-specific) | 0.0585 | 0.967 | 0.0549 | -0.401 | -0.0359
in vitro model: cholesterol 0.05 mM, time point: constant (~7 days, model-specific) | 0.12 | 0.79 | 0.407 | – | -0.319
in vitro model: cholesterol 0.05 mM, time point: terminal (~4-5 doublings, model-specific) | 0.104 | 0.934 | 0.436 | 1.01 | -0.25
in vitro model: cholesterol-high 0.2 mM, time point: constant (~7 days, model-specific) | 0.0476 | 0.871 | 1.02 | – | -0.159
in vitro model: cholesterol-high 0.2 mM, time point: terminal (~4-5 doublings, model-specific) | 0.0356 | 0.99 | 0.975 | 1.06 | -0.498
in vitro model: dormancy (butyrate + nitrate, low O2), time point: constant (~7 days, model-specific) | 0.1 | 0.835 | 0.385 | – | 0.404
in vitro model: dormancy (butyrate + nitrate, low O2), time point: terminal (~4-5 doublings, model-specific) | 0.112 | 0.968 | 0.00245 | 0.272 | 0.0288
in vitro model: standard 7H9 glycerol, time point: constant = terminal | 0.076 | 0.958 | 0.211 | -0.156 | -0.109
in vitro model: valerate, time point: constant (~7 days, model-specific) | 0.111 | 0.836 | 0.23 | – | 0.0201
in vitro model: valerate, time point: terminal (~4-5 doublings, model-specific) | 0.0733 | 0.922 | 0.115 | 0.51 | 0.0884

NNC(=O)c1ccncc1 [isoniazid] + CC(=O)NC[C@H]1CN(c2ccc(N3CCOCC3)c(F)c2)C(=O)O1 [linezolid]
Details | AUC25, [4] | Einf, [3] | FIC50, [2] | FIC90, [1] | GRinf, [5]
in vitro model: acidic pH 5.7, time point: constant (~7 days, model-specific) | 0.0979 | 0.795 | 0.0411 | – | -0.178
in vitro model: acidic pH 5.7, time point: terminal (~4-5 doublings, model-specific) | 0.0773 | 0.963 | 0.877 | 0.0348 | -0.173
in vitro model: intracellular J774, time point: constant = terminal | – | 0.915 | – | 0.155 | -0.0635

Details | AUC25, [4] | Einf, [3] | FIC50, [2] | FIC90, [1] | GRinf, [5]
in vitro model: butyrate, time point: constant (~7 days, model-specific) | 0.0801 | 0.917 | 0.754 | 0.923 | 0.00442
in vitro model: butyrate, time point: terminal (~4-5 doublings, model-specific) | 0.0539 | 0.959 | 0.657 | 0.547 | 0.0109
in vitro model: cholesterol 0.05 mM, time point: constant (~7 days, model-specific) | 0.129 | 0.677 | 0.121 | – | -0.0433
in vitro model: cholesterol 0.05 mM, time point: terminal (~4-5 doublings, model-specific) | 0.14 | 0.945 | 4.49 | -0.681 | -0.23
in vitro model: cholesterol-high 0.2 mM, time point: constant (~7 days, model-specific) | 0.127 | 0.928 | -0.123 | 0.0406 | -0.371
in vitro model: cholesterol-high 0.2 mM, time point: terminal (~4-5 doublings, model-specific) | 0.119 | 1 | -0.0744 | 0.498 | -0.893
in vitro model: dormancy (butyrate + nitrate, low O2), time point: constant (~7 days, model-specific) | 0.0528 | 0.912 | 1.45 | 0.856 | 0.109
in vitro model: dormancy (butyrate + nitrate, low O2), time point: terminal (~4-5 doublings, model-specific) | 0.0354 | 0.989 | 1.06 | 0.558 | 0.00877
in vitro model: standard 7H9 glycerol, time point: constant = terminal | 0.0758 | 0.909 | 0.116 | 0.045 | 0.137
in vitro model: valerate, time point: constant (~7 days, model-specific) | 0.0661 | 0.818 | 0.548 | – | 0.0896
in vitro model: valerate, time point: terminal (~4-5 doublings, model-specific) | 0.0441 | 0.916 | 0.612 | 0.861 | 0.0931
